A word on the IC50: it is the concentration that inhibits the measured activity by half.

In this assay the test system is cellular pERK in NCI-H1975 cells (EGFR/L858R-T790M). Kind of assay: pERK potency assay (In Cell ELISA). In kind it is cell-based. To be noted: Homo sapiens, 1 h compound incubation. An excerpt: The assay measures the ability of a compound to inhibit SOS1 function in cells. SOS1 activates RAS proteins by catalyzing the conversion of RAS GDP to RAS GTP in response to receptor tyrosine kinase activation. Activation of RAS induces a sequence of cellular signaling events that result in increased phosphorylation of ERK at Threonine 202 and Tyrosine 204 (pERK). The procedure (i.e., In Cell ELISA as described below) measures the level of cellular pERK in response to a test compound in NCI-H1975 cells (EGFR/L858R-T790M).
First, NCI-H1975 cells were grown and maintained using media and procedures recommended by the ATCC. A day before compound addition, cells were plated in poly-D-lysine coated 96-well cell culture plates (Corning® BioCoat® Cat #356640) at 25000 cells/well/100 μL and grown overnight in an incubator at 37° C. with 5% CO2. A solution of a test compound was prepared with 3-fold serial dilutions in DMSO having a top concentration of 6 mM. On the day of the assay, 50 μL of a test compound dilution in media was added to each well of cell culture plate with a final compound concentration in the range of 0.001 μM to 20 μM. After addition of the compound, cells were incubated for 1 h at 37° C. with 5% CO2, after which the culture medium was removed. Cells were fixed with 4% formaldehyde in phosphate-buffered saline (PBS) and incubated at RT for 20 min. The plate was washed three times with PBST (PBS with 0.05% Tween®-20), followed by incubation with 100 μL of pre-cooled methanol at −20° C. for 20 min. After incubation, methanol was removed. The plate was again washed with PBST. Cells were then permeabilized with 100 μL/well of 0.1% Triton X-100 in PBS at RT for 20 min and then quenched with a quenching buffer (PBST containing 1% H2O2 and 0.1% sodium azide) for 20 min at RT with gentle shaking. After washing once with PBST, a blocking buffer (250 uL/well, Pierce™ Protein-Free-PBS Blocking Buffer, Cat #37572) was then added to the cells for 1-h incubation at RT, followed by an anti-pERK antibody (cell signaling, 1:1000 dilution in 5% BSA in PBST) incubation overnight at 4° C. and a secondary antibody-HRP (Jackson immunoresearch, 1:3000 dilution in 5% BSA in PBST) incubation at RT for 1 h. PBST wash was carried out after each step three times. Before the addition of a substrate (Advansta ELISABright™), the plate was washed with PBS twice to remove detergent residues. The Cellular pERK level was determined using the microplate reader (Biotek Synergy™ H1) to detect the chemiluminescence signal. IC50 was determined by fitting a 4-parameter sigmoidal concentration-response model.
`CC(=O)N1CCC(F)(c2cc3/c(=N/[C@H](C)c4cccc(C#N)c4C)nc4n(c3cn2)CCC4)CC1` [Compound 30]: the IC50 was less than 100 nM.
Take `Cc1c([C@@H](C)/N=c2\nc3n(c4cnc(C5(C(F)F)CC5)cc24)CCC3)cccc1C(F)(F)F` [Compound 31, (R,Z)-3-(1-(difluoromethyl)cyclopropyl)-N-(1-(2-methyl-3-(trifluoromethyl)phenyl)ethyl)-8,9-dihydropyrido[4,3-e]pyrrolo[1,2-a]pyrimidin-5(7H)-imine]: the IC50 was less than 100 nM.
For the compound `CC(=O)N1CC=C(c2cc3/c(=N/[C@H](C)c4cccc(C(F)(F)F)c4C)nc4n(c3cn2)CCO4)CC1` [Compound 32, (R,Z)-1-(4-(5-((1-(2-methyl-3-(trifluoromethyl)phenyl)ethyl)imino)-8,9-dihydro-5H-oxazolo[3,2-a]pyrido[4,3-e]pyrimidin-3-yl)-3,6-dihydropyridin-1(2H)-yl)ethan-1-one], the IC50 was less than 100 nM.
For `CC(=O)N1CCC(F)(c2cc3/c(=N/[C@H](C)c4cccc(C(F)(F)F)c4C)nc4n(c3cn2)CCO4)CC1` [Compound 33, (R,Z)-1-(4-fluoro-4-(5-((1-(2-methyl-3-(trifluoromethyl)phenyl)ethyl)imino)-8,9-dihydro-5H-oxazolo[3,2-a]pyrido[4,3-e]pyrimidin-3-yl)piperidin-1-yl)ethan-1-one], the IC50 is less than 100 nM.
Turning to `CC(=O)N1CC=C(c2cc3/c(=N/[C@H](C)c4cccc(C#N)c4C)nc4n(c3cn2)CCO4)CC1` [Compound 34], the IC50 was less than 100 nM.
As to `CC(=O)N1CCC(F)(c2cc3/c(=N/[C@H](C)c4cccc(C#N)c4C)nc4n(c3cn2)CCO4)CC1` [Compound 35], the IC50 was less than 100 nM.
For `Cc1c([C@@H](C)/N=c2\nc(C)n(C)c3ccc(C4=CCOCC4)cc23)cccc1C(F)(F)F` [Compound 36], the IC50 is less than 100 nM.
For `CC(=O)N1CC=C(c2ccc3c(c2)/c(=N/[C@H](C)c2cccc(C(F)(F)F)c2C)nc(C)n3C)CC1` [Compound 37] the value was less than 100 nM.
For `Cc1c(C#N)cccc1[C@@H](C)/N=c1\nc(C)n(C)c2ccc(C3=CCOCC3)cc12` [Compound 38] the value was less than 100 nM; for `Cc1c([C@@H](C)/N=c2\nc(C)n(C)c3cnc(C4=CCOCC4)cc23)cccc1C(F)(F)F` [Compound 39], less than 100 nM.
As to `Cc1c(C#N)cccc1[C@@H](C)/N=c1\nc(C)n(C)c2cnc(C3=CCC(F)(F)CC3)cc12` [Compound 40], the IC50 was less than 100 nM.
To `Cc1c(C#N)cccc1[C@@H](C)/N=c1\nc(C)n(C)c2cnc(C3=CCOCC3)cc12` [Compound 41] belongs less than 100 nM; to `Cc1c([C@@H](C)/N=c2\nc(C)n(C)c3cnc(C4=CCN(S(C)(=O)=O)CC4)cc23)cccc1C(F)(F)F` [Compound 42, (R,Z)-1,2-dimethyl-N-(1-(2-methyl-3-(trifluoromethyl)phenyl)ethyl)-6-(1-(methylsulfonyl)-1,2,3,6-tetrahydropyridin-4-yl)pyrido[3,4-d]pyrimidin-4(1H)-imine], less than 100 nM; to `Cc1c([C@@H](C)/N=c2\nc(C)n(C)c3cnc(C4=CCN(C(N)=O)CC4)cc23)cccc1C(F)(F)F` [Compound 43, (R,Z)-4-(1,2-dimethyl-4-((1-(2-methyl-3-(trifluoromethyl)phenyl)ethyl)imino)-1,4-dihydropyrido[3,4-d]pyrimidin-6-yl)-3,6-dihydropyridine-1(2H)-carboxamide], less than 100 nM.
In the case of `CC(=O)N1CCC(F)(c2cc3/c(=N/[C@H](C)c4cccc(C(F)(F)F)c4C)nc(C)n(C)c3cn2)C[C@H]1C` (stereo partly drawn) [Compound 45, 1-((2R)-4-((Z)-1,2-dimethyl-4-(((R)-1-(2-methyl-3-(trifluoromethyl)phenyl)ethyl)imino)-1,4-dihydropyrido[3,4-d]pyrimidin-6-yl)-4-fluoro-2-methylpiperidin-1-yl)ethan-1-one], the 50% inhibitory concentration (IC50) was less than 100 nM.
Regarding `CC(=O)N1CCC(F)(c2cc3/c(=N/[C@H](C)c4cccc(C(F)(F)F)c4C)nc(C)n(C)c3cn2)CC1(C)C` (stereo partly drawn) [Compound 46, 1-(4-((Z)-1,2-dimethyl-4-(((R)-1-(2-methyl-3-(trifluoromethyl)phenyl)ethyl)-imino)-1,4-dihydropyrido[3,4-d]pyrimidin-6-yl)-4-fluoro-2,2-dimethylpiperidin-1-yl)ethan-1-one], the IC50 is less than 100 nM.
To `Cc1c([C@@H](C)/N=c2\nc(C)n(C)c3cnc(-c4ccn5c(C(F)(F)F)ncc5c4)cc23)cccc1C(F)(F)F` [Compound 47, (R,Z)-1,2-dimethyl-N-(1-(2-methyl-3-(trifluoromethyl)phenyl)ethyl)-6-(3-(trifluoromethyl)imidazo[1,5-a]pyridin-7-yl)pyrido[3,4-d]pyrimidin-4(1H)-imine] belongs less than 100 nM; to `Cc1c([C@@H](C)/N=c2\nc(C)n(C)c3cnc(N4CCC(F)(F)CC4)cc23)cccc1C(F)(F)F` [Compound 48, (R,Z)-6-(4,4-difluoropiperidin-1-yl)-1,2-dimethyl-N-(1-(2-methyl-3-(trifluoromethyl)phenyl)ethyl)pyrido[3,4-d]pyrimidin-4(1H)-imine], less than 100 nM; to `CC(=O)N1CCN(c2cc3/c(=N/[C@H](C)c4cccc(C(F)(F)F)c4C)nc(C)n(C)c3cn2)CC1` [Compound 49], less than 100 nM.
In the case of `Cc1c([C@@H](C)/N=c2\nc(C)n(C)c3cnc(N4CCC5(CC5)C4)cc23)cccc1C(F)(F)F` [Compound 50], the IC50 was less than 100 nM.
To `Cc1c([C@@H](C)/N=c2\nc(C)n(C)c3cnc(N4CCC5(CC4)CC5)cc23)cccc1C(F)(F)F` [Compound 51] belongs less than 100 nM; to `Cc1c([C@@H](C)/N=c2\nc(C)n(C)c3cnc(N4CCO[C@H](C)C4)cc23)cccc1C(F)(F)F` [Compound 52], less than 100 nM.
For `CC(=O)N1CCN(c2cnc3c(c2)/c(=N/[C@H](C)c2cccc(C(F)(F)F)c2C)nc(C)n3C)CC1` [Compound 53] the value was less than 100 nM; for `Cc1c(C#N)cccc1[C@@H](C)/N=c1\nc(C)n(C)c2cnc(N3CCOCC3)cc12` [Compound 54, (R,Z)-3-(1-((1,2-dimethyl-6-morpholinopyrido[3,4-d]pyrimidin-4(1H)-ylidene)amino)ethyl)-2-methylbenzonitrile], less than 100 nM.
For `Cc1c([C@@H](C)/N=c2\nc(C)n(C)c3cnc(N4CCOCC4)cc23)cccc1C(F)(F)F` [Compound 55] the value was less than 100 nM; for `CC(=O)N1CCN(c2cc3/c(=N/[C@H](C)c4cccc(C#N)c4C)nc(C)n(C)c3cn2)CC1` [Compound 56], less than 100 nM; for `Cc1c(C#N)cccc1[C@@H](C)/N=c1\nc(C)n(C)c2cnc(N3CCCC3)cc12` [Compound 57], less than 100 nM.
On to `Cc1c(C#N)cccc1[C@@H](C)/N=c1\nc(C)n(C)c2cnc(N3CCC(F)(F)CC3)cc12` [Compound 59], for which the half-maximal inhibitory concentration (IC50) was less than 100 nM.
For `Cc1c(C#N)cccc1[C@@H](C)/N=c1\nc(C)n(C)c2cnc(N3CCC4(CC3)CC4)cc12` [Compound 60], the half-maximal inhibitory concentration (IC50) was less than 100 nM.
Regarding `Cc1c(C#N)cccc1[C@@H](C)/N=c1\nc(C)n(C)c2cnc(N3CCO[C@H](C)C3)cc12` [Compound 61], the IC50 is less than 100 nM.
For `Cc1c([C@@H](C)/N=c2\nc(C)n(C)c3cnc(N4CCC(F)(F)C4)cc23)cccc1C(F)(F)F` [Compound 62] the value was less than 100 nM.
For `Cc1c(C#N)cccc1[C@@H](C)/N=c1\nc(C)n(C)c2cnc(N3CCCCC3)cc12` [Compound 64] the value was less than 100 nM.
To `Cc1c(C#N)cccc1[C@@H](C)/N=c1\nc(C)n(C)c2cnc(N3CCC4(CC4)C3)cc12` [Compound 65] belongs less than 100 nM; to `Cc1c(C#N)cccc1[C@@H](C)/N=c1\nc(C)n(C)c2cnc(N3CCC(F)(F)C3)cc12` [Compound 66], less than 100 nM; to `Cc1c(C#N)cccc1[C@@H](C)/N=c1\nc(C)n(C)c2cnc(N3CCC(C)(O)CC3)cc12` [Compound 67], less than 100 nM.
Regarding `CC(=O)N1CCN(c2cc3/c(=N/[C@H](C)c4cccc(C(F)(F)F)c4C)nc(C)n(C)c3cn2)C(=O)C1` [Compound 68], the IC50 is less than 100 nM.
For `Cc1c(C#N)cccc1[C@@H](C)/N=c1\nc(C)n(C)c2cnc(N3CC(F)C3)cc12` [Compound 69] the value was less than 100 nM.
To `Cc1c(C#N)cccc1[C@@H](C)/N=c1\nc(C)n(C)c2cnc(N3CCC3)cc12` [Compound 71] belongs less than 100 nM.
